Source: patent publication US20120070852A1, “ASSAY” (IMPERIAL INNOVATIONS LIMITED, priority 2008, published 2012)

Target: T1, p300 catalytic domain (Homo sapiens, UniProt Q09472)
T1 construct: 40 ng/ml recombinant purified p300 catalytic domain (Millipore); purchased Millipore
T1 sequence (Q09472 1287-1663 limits assumed): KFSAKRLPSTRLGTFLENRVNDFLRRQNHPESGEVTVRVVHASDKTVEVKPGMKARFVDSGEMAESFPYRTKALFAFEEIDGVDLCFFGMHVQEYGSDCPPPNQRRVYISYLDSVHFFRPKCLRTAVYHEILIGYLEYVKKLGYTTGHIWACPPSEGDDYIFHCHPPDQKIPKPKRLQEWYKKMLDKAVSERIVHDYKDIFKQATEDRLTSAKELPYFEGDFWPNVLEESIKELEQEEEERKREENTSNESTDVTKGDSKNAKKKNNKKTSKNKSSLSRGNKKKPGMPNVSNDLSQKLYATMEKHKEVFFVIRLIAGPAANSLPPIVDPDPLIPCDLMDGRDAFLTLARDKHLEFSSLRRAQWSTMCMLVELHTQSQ
Test: QD-FRET p300 HAT assay, inhibitor response
Type: biochemical
Conditions: 40 ng/ml p300 catalytic domain, 100 μM acetyl-CoA, 25 μM substrate peptide, 2 hr at 30° C.
Procedure: p300 assay: In a final volume of 14 μl, 25 μM substrate peptide was incubated with 40 ng/ml recombinant purified p300 catalytic domain (Millipore) in the presence or absence of 100 μM acetyl-CoA (Sigma-Alrich) and different concentrations of anacardic acid in 50 mM Tris-HCl buffer (pH 8.0) containing 0.1% (w/v) BSA (reaction buffer) for 2 hr at 30° C. An aliquot of this reaction mixture was transferred to a 10 μl solution of 50 nM quantum dots and 300 nM Alexa Fluor 647-labelled anti-AcK antibody to achieve a peptide to Qdot ratio of 40:1 and the mixture allowed to incubate for 30 min at room temperature. Fluorescence intensity data were collected with […] on a SpectraMax M5 microplate reader (Molecular Devices) using a 400 nm excitation source.
A synthetic peptide substrate for p300 containing an appending hexahistidine motif was exposed to p300 enzyme in the presence of acetyl-CoA to allow enzymatic acetylation of the peptide. […] This acetylation event was detected by means of an anti-acetyl lysine antibody labelled with a fluorescent dye, which binds selectively to the acetylated lysine residues of the quantum dot-bound peptide. […] This is indicated in the fluorescence spectra as a concomitant decrease in emission at 605 nm and enhanced emission at 670 nm from the Qdot and dye molecules respectively—see FIG. 8.

Compound: CCCCCCCCCCCCCCCc1cccc(O)c1C(=O)O [anacardic acid]
- effect of serial dilutions of inhibitor on dye-specific emission at 670 nm (energy transfer): dose-dependent decrease in dye-specific emission at 670 nm
